Test system: RBC membrane
Test: In-vitro anti-inflammatory activity, RBC membrane protection
Type: cell-based
Conditions: concentration of 5 mg/mL

Row | SMILES | RBC membrane protection
1 | O=C(O)Cc1ccccc1Nc1c(Cl)cccc1Cl [diclofenac sodium] | 76%
2 | C[C@]12C=CC(=O)C=C1CC[C@@H]1[C@@H]2[C@@H](O)C[C@@]2(C)[C@H]1CC[C@]2(O)C(=O)CO [prednisolone] | 73%

Reference: US20240108674A1, “BERBERIS EXTRACT NANO-FORMULATION AND PROCESS OF PREPARATION THEREOF” (priority 2021, published 2024)
